Assay [1] addresses T1, FK506 Binding Protein 12 kDa (FKBP12) (Homo sapiens, UniProt P62942). The assay is described as follows: TR-FRET tracer binding. A general note: Time-resolved FRET reads energy transfer from a long-lived donor to a nearby acceptor.
The target in assay [2] is T1, FK506 Binding Protein 12 kDa (FKBP12). The assay is described as follows: TR-FRET competition with fluorescein-labeled SLF.

T1 sequence (P62942 2-108): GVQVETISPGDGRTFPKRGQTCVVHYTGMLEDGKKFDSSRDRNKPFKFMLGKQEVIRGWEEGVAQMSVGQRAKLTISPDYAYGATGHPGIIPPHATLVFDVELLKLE

On to SLF-Fl, for which, in assay [1], binding was put at a Kd of 30 nM.

On to `CCC(C)(C)C(=O)C(=O)N1CCCC[C@H]1C(=O)O[C@H](CCc1ccc(OC)c(OC)c1)c1cccc(OCC(=O)O)c1` [SLF-OH], for which the IC50 – broadly, the concentration needed to halve the response being measured – in assay [2] is 200 nM.

The record behind these values is PMC2967433 (Bioconjugate chemistry, 2010).
